In patent US20110152166A1, “METHOD OF MODULATION OF PROTEIN PHOSPHORYLATION-DEPENDENT CONFORMATIONAL TRANSITIONS WITH LOW MOLECULAR WEIGHT COMPOUNDS” (priority 2006, published 2011):
Where a chain is given by its changes, count along the chain named. Ends that are not written are not given here.

Tests used:
Assay in all cases: PDK1 activity assay with T308tide
Assay type in all cases: biochemical
GST-PDK1 [Arg131Ala] = target: T1, GST-PDK1 [Arg131Ala] (Homo sapiens, UniProt O15530, R131A); conditions: for AC50 / Max. activity: GST-PDK1 [Arg131Ala]
T1 construct: different protein constructs, comprising the full length protein or the catalytic domain alone; made in house; host or cells: HEK293 cells (pEBG-2T-PDK1 mutant)
T1 sequence (O15530 1-556 R131A): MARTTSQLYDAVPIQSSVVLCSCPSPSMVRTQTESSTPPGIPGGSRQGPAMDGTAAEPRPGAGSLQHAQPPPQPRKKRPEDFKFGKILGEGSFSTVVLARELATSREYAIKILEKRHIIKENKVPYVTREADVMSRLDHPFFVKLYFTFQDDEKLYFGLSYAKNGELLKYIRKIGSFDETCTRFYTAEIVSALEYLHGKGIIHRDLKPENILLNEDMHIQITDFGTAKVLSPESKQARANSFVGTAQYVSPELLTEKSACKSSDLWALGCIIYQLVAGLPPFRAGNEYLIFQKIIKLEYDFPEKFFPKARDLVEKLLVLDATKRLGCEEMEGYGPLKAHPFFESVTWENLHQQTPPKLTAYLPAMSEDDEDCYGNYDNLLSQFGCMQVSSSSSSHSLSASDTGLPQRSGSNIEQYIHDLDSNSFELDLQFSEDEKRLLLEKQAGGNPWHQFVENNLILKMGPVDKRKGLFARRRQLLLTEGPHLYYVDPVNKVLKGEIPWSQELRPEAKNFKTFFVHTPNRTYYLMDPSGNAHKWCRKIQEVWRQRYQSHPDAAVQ

GST-PDK1 [Leu155Ala] = target: T2, GST-PDK1 [Leu155Ala] (Homo sapiens, UniProt O15530, L155A)
T2 construct: different protein constructs, comprising the full length protein or the catalytic domain alone; made in house; host or cells: HEK293 cells (pEBG-2T-PDK1 mutant)
T2 sequence (O15530 1-556 L155A): T1 sequence (O15530 1-556 R131A) with A131R, L155A

PDK1 50-360 = target: T3, PDK1 50-360 (Homo sapiens, UniProt O15530); conditions: for AC50 / Max. activity: PDK1 50-360; for activation of PDK1 CD wt (in words): catalytic domain 50-360 wild type
T3 construct: the catalytic domain of PDK1 (50-359) produced in SF9 insect cells; His-tag (pFastbac-HT, TEV site) (N, cleaved yes); made in house; host or cells: Sf9 insect cells (baculovirus, pFastbac-HT)
T3 sequence (O15530 50-359): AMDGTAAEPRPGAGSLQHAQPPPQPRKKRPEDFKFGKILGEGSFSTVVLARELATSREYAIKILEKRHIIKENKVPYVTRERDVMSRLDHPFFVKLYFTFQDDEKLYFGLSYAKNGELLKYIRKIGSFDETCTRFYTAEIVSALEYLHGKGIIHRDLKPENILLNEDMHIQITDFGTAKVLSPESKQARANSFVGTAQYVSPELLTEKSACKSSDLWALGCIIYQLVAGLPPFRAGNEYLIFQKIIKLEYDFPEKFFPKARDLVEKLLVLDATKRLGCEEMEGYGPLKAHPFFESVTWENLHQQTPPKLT

| activation of PDK1 mutant (in words) (GST-PDK1 [Arg131Ala]; Arg131 mutated to Ala) | AC50 (GST-PDK1 [Arg131Ala]) [µM] | Max. activity (GST-PDK1 [Arg131Ala]) [U/mg] | AC50 (GST-PDK1 [Leu155Ala]) [µM] | Max. activity (GST-PDK1 [Leu155Ala]) [U/mg] | AC50 (PDK1 50-360) [µM] | Max. activity (PDK1 50-360) [U/mg] | activation of PDK1 CD wt (in words) (PDK1 50-360) | Compound |
| --- | --- | --- | --- | --- | --- | --- | --- | --- |
| no longer activated | > 200 | 1.09 ± 0.06 | > 200 | 2.02 ± 0.61 | 38 ± 8 | 3.46 ± 0.19 | activated | O=C(O)CSC(CC(=O)c1ccc(Cl)cc1)c1ccccc1 (stereo not drawn) [Compound 1] |
| – | 3.7 ± 2 | 1.24 ± 0.8 | 3.7 ± 0.66 | 3.46 ± 0.15 | 0.17 ± 0.09 | 2.62 ± 0.18 | activated | REPRILSEEEQEMFRDFDYIADWC [PIFtide, reference compound] |
